The text below walks through data of patent publication US20100168175A1, “ATPENINS” (priority 2008, published 2010).

The test system of data set [1] is Phytophthora infestans. The data set can be described thus: whole plant or invertebrate. The data set is classed as in vivo. The settings on record: in Solanum lycopersicum, 168 h, read-out: Efficacy in %.
The subject of data set [2] is Sphaerotheca fuliginea. The data set can be described thus: Sphaerotheca test (cucumber)/protective. The data set is classed as in vivo. The settings on record: Podosphaera fuliginea, 168 h, read-out: Efficacy in %.
The subject of data set [3] is Alternaria solani. The data set can be described thus: Alternaria test (tomato)/protective. The format is in vivo. To be noted: young tomato plants, protective spray, application rate 500 (in ppm g/ha [sic]), evaluation 7 days after inoculation; 0% = control, 100% = no infection.
A short description of data set [4]: log P by HPLC on a reversed-phase column (C18), EEC Directive 79/831 Annex V.A8. The data set is classed as physicochemical. To be noted: reversed-phase HPLC column (Kromasil 100 C18), H3PO4. The method, then:
The stated log P values were determined in accordance with EEC Directive 79/831 Annex V.A8 by HPLC (High Performance Liquid Chromatography) on a reversed-phase column (C18).
HP1100 LC System (UV/DAD); Kromasil 100 C18, 3.5 μm, 75×2.0 mm; mobile phase A: acetonitrile (0.1% formic acid); mobile phase B: water (0.09% formic acid); linear gradient from 10% acetonitrile to 95% acetonitrile over 8.5 min, then 95% acetonitrile for a further 3.5 min; oven temperature 43° C.; flow rate: 0.5 ml/min
HP1100 LC System (UV/DAD); Kromasil 100 C18, 3.5 μm, 70×3.1 mm; mobile phase A: acetonitrile (0.1% phosphoric acid); mobile phase B: water (0.1% phosphoric acid); linear gradient from 10% acetonitrile to 95% acetonitrile over 8.5 min, then 95% acetonitrile for a further 3 min; oven temperature 43° C.; flow rate: 1 ml/min

Setting [5] is: young cucumber plants, protective spray, application rate 100 g/ha, evaluation 7 days after inoculation, 0% = control, 100% = no infection.

Like-named read-outs stand apart in the source and are kept apart here.

`C/C=C/CC(C)C(=O)c1c(O)c(OC)c(OC)[nH]c1=O` (stereo not drawn) [Compound I-1, 4-Hydroxy-5,6-dimethoxy-3-[(4E)-2-methylhex-4-enoyl]pyridin-2(1H)-one]: the pest or weed control at 500 ppm in data set [1] is 0%. The pest or weed control at 100 g/ha in data set [2] worked out at 77%. The compound also showed an Efficacy in % in data set [3] of 0%.
Take `COc1ccc(Cn2c(OC)c(OC)c(O)c(C(=O)CCCCc3ccccc3)c2=O)cc1` [Compound I-28]: the pest or weed control at 500 ppm in data set [1] was 50%.
Consider `CCC(=O)c1c(O)c(OC)c(OC)n(Cc2ccc(OC)cc2)c1=O` [Compound I-48, 4-Hydroxy-5,6-dimethoxy-1-(4-methoxybenzyl)-3-propanoylpyridin-2(1H)-one], for which the pest or weed control at 500 ppm in data set [1] was 63%. In data set [3], this compound gave an Efficacy in % of 57%.
On to `COc1ccc(Cn2c(OC)c(OC)c(O)c(C(=O)c3ccc(C)cc3)c2=O)cc1` [Compound I-49], for which, in data set [1], the pest or weed control at 500 ppm amounted to 50%.
Turning to `COc1[nH]c(=O)c(C(=O)c2ccc(C)cc2)c(O)c1OC` [Compound I-55], the pest or weed control at 500 ppm in data set [1] is 56%.
Turning to `COc1ccc(Cn2c(OC)c(OC)c(O)c(C(C)=O)c2=O)c(OC)c1` [Compound I-66], the Efficacy in % in data set [3] was found to be 94%.
As to `COc1ccc(Cn2c(O)c(OC)c(O)c(C(=O)C3CCCC3)c2=O)c(OC)c1` [Compound I-69], in data set [1], the pest or weed control at 500 ppm stood at 50%.
In data set [3], `COc1[nH]c(=O)c(C(=O)CCc2ccccc2C)c(O)c1OC` [Compound I-72] yielded an Efficacy in % of 50%.
Turning to `CCC(CC)CC(C)C(=O)c1c(O)c(OC)c(OC)[nH]c1=O` (stereo not drawn) [Compound I-74], in data set [2], the pest or weed control at 100 g/ha is 100%.
`COc1ccc(Cn2c(OC)c(OC)c(O)c(C(=O)Nc3ccc(-c4ccccc4)cc3)c2=O)cc1` [Compound I-75] gave an Efficacy in % in data set [3] of 70%.
As for `COc1ccc(Cn2c(OC)c(OC)c(O)c(C(=O)CCc3ccc(Oc4ccc(Cl)cc4)cc3)c2=O)cc1` [Compound I-89], in data set [4], the chromatographic logP (usually lipophilicity estimated from chromatographic retention) was determined as 5.75. In data set [1], the pest or weed control at 500 ppm is 50%.
For `COc1ccc(Cn2c(O)c(OC)c(O)c(C(=O)C3CCC(C)CC3)c2=O)cc1` (stereo not drawn) [Compound I-101], the pest or weed control at 500 ppm in data set [1] was determined as 78%.
On the same count and under the same terms, the result for `COc1ccc(Cn2c(OC)c(OC)c(O)c(C(=O)Cc3ccc(Br)cc3)c2=O)cc1` [Compound I-107] reads 78%.
On to `COc1c(O)c(C(=O)C(C)C)c(=O)n(Cc2ccccc2)c1OC` [Compound I-108], for which, in data set [3], the Efficacy in % stood at 67%.
On to `COc1ccc(Cn2c(OC)c(OC)c(O)c(C(=O)C3CC=CCC3)c2=O)c(OC)c1` (stereo not drawn) [Compound I-110], for which the pest or weed control at 500 ppm in data set [1] was 78%.
Same read-out and setting: the same measure for `COc1ccc(Cn2c(O)c(OC)c(O)c(C(=O)C3CCCCCC3)c2=O)cc1` [Compound I-111]: 89%.
Turning to `COc1[nH]c(=O)c(C(=O)C2CCC(C)CC2)c(O)c1OC` (stereo not drawn) [Compound I-121], the Efficacy in % in data set [3] turned out to be 56%.
Regarding `COc1[nH]c(=O)c(C(=O)c2ccc(Cl)cc2)c(O)c1OC` [Compound I-122], in data set [1], the pest or weed control at 500 ppm turned out to be 56%.
As for `CCCC(C)C(=O)c1c(O)c(OC)c(OC)[nH]c1=O` (stereo not drawn) [Compound I-129], the pest or weed control at 500 ppm in data set [1] amounted to 56%. The pest or weed control at 100 g/ha in data set [2] is 98%.
With `COc1[nH]c(=O)c(C(=O)C2CC2)c(O)c1OC` [Compound I-130], in data set [1], the pest or weed control at 500 ppm was 56%.
Regarding `COc1[nH]c(=O)c(C(=O)C(C)CC(C)C)c(O)c1OC` (stereo not drawn) [Compound I-138, 3-(2,4-Dimethylpentanoyl)-4-hydroxy-5,6-dimethoxypyridin-2(1H)-one], the pest or weed control at 100 g/ha in data set [2] (setting [5]) worked out at 96%.
On to `CCCC(C)c1ccccc1NC(=O)c1c(O)c(OC)c(OC)[nH]c1=O` (stereo not drawn) [Compound I-139], for which the pest or weed control at 500 ppm in data set [1] turned out to be 60%.
On to `COc1[nH]c(=O)c(C(=O)C(C)Cc2ccc(C(F)(F)F)cc2)c(O)c1OC` (stereo not drawn) [Compound I-141], for which the pest or weed control at 500 ppm in data set [1] turned out to be 70%. Also, the Efficacy in % in data set [3] was determined as 80%.
`COc1[nH]c(=O)c(C(=O)C(C)C2CCCCC2)c(O)c1OC` (stereo not drawn) [Compound I-149]: the Efficacy in % in data set [3] is on record as 80%.
Still for that read-out and setting: the result for `COc1[nH]c(=O)c(C(=O)C(C)CCC(C)C)c(O)c1OC` (stereo not drawn) [Compound I-153] reads 90%; that for `COc1ccc(Cn2c(OC)c(OC)c(O)c(C(=O)C(C)C/C=C\COCc3ccccc3)c2=O)cc1` (stereo not drawn) [Compound I-157], 50%.
Regarding `COc1[nH]c(=O)c(C(=O)C(C)CCCc2ccccc2)c(O)c1OC` (stereo not drawn) [Compound I-158], the pest or weed control at 500 ppm in data set [1] came out at 60%. In data set [3], this compound had an Efficacy in % of 50%.
In data set [3], `COc1[nH]c(=O)c(C(=O)C(C)CC(C)Cc2ccccc2)c(O)c1OC` (stereo not drawn) [Compound I-160] gave an Efficacy in % of 70%.
The compound `COc1[nH]c(=O)c(C(=O)C(C)CC2CCC(C(C)C)CC2)c(O)c1OC` (stereo not drawn) [Compound I-164] registered a chromatographic logP in data set [4] of 5.41. The compound further yielded an Efficacy in % in data set [3] of 90%.
Take `COc1ccc(Cn2c(OC)c(OC)c(O)c(C(=O)C(C)Cc3c(Cl)cccc3Cl)c2=O)cc1` (stereo not drawn) [Compound I-172, 3-[3-(2,6-Dichlorophenyl)-2-methylpropanoyl]-4-hydroxy-5,6-dimethoxy-1-(4-methoxybenzyl)pyridin-2(1H)-one]: the pest or weed control at 500 ppm in data set [1] was found to be 71%.
For the compound `CCCCCC(C)C(=O)c1c(O)c(OC)c(O)n(Cc2ccc(OC)cc2)c1=O` (stereo not drawn) [Compound I-178, 4,6-Dihydroxy-5-methoxy-1-(4-methoxybenzyl)-3-(2-methylheptanoyl)pyridin-2(1H)-one], the pest or weed control at 500 ppm in data set [1] was 60%.
Still for that read-out and setting: the result for `COc1ccc(Cn2c(O)c(OC)c(O)c(C(=O)C(C)CC(F)(F)F)c2=O)cc1` (stereo not drawn) [Compound I-180] reads 50%.
Compound `CCCC1CCC(C(=O)c2c(O)c(OC)c(OC)n(Cc3ccc(OC)cc3)c2=O)CC1` (stereo not drawn) [Compound I-184] came in with an Efficacy in % in data set [3] of 56%.
In the case of `COc1[nH]c(=O)c(C(=O)C(C)CC(F)(F)F)c(O)c1OC` (stereo not drawn) [Compound I-197], in data set [2] (setting [5]), the pest or weed control at 100 g/ha stood at 100%.
`COc1[nH]c(=O)c(C(=O)C(C)c2ccc(Cl)cc2)c(O)c1OC` (stereo not drawn) [Compound I-204]: the pest or weed control at 100 g/ha in data set [2] (setting [5]) came out at 85%.
In data set [3], `CCCCCCC(CCCC)C(=O)c1c(O)c(OC)c(OC)[nH]c1=O` (stereo not drawn) [Compound I-212] registered an Efficacy in % of 71%.
Same read-out and setting: the same measure for `CCC(C)CC(C)C(=O)c1c(O)c(OC)c(OC)[nH]c1=O` (stereo not drawn) [Compound I-219]: 50%.
On to `COc1[nH]c(=O)c(C(=O)c2ccc3ccccc3c2)c(O)c1OC` [Compound I-221], for which, in data set [1], the pest or weed control at 500 ppm was 80%. Moreover, the Efficacy in % in data set [3] is on record as 93%.
In the case of `COc1[nH]c(=O)c(C(=O)C(C)CCC(C)(C)C)c(O)c1OC` (stereo not drawn) [Compound I-228], the Efficacy in % in data set [3] amounted to 80%.
With `CCCCC(C)C(=O)c1c(O)c(OC)c(OC)[nH]c1=O` (stereo not drawn) [Compound I-230], the pest or weed control at 100 g/ha in data set [2] stood at 98%. The Efficacy in % in data set [3] is 70%.
As for `COc1[nH]c(=O)c(C(=O)C(C)CCC2CCCC2)c(O)c1OC` (stereo not drawn) [Compound I-240], the pest or weed control at 100 g/ha in data set [2] (setting [5]) stood at 98%.
